Laboratory results reported in US20210353784A1, “DETECTING AND TREATING CANCERS USING CELL PENETRANT MTP53-OLIGOMERIZATION-DOMAIN PEPTIDE” (priority 2020, published 2021).
Ends that are not written are not given here.

System: MDA-MB-468 and MCF7 cells
Assay: Live cell imaging staining with Cy5 conjugated first and second-generation TAT-mtp53ODP
Assay type: cell-based, Human
Conditions: 500 nM, 4 h incubation
Protocol: FIG. 7 quantifies the results of live cell imaging staining of MDA-MB-468 and MCF7 cells with 4 h incubation of 500 nM Cy5 conjugated first (TAT-mtp53ODP-35mer, SEQ ID NO: 3) and second-generation (TAT-mtp53ODP-27mer (SEQ ID NO: 7) and TAT-mtp53ODP-37mer (SEQ ID NO: 8)) after 4 h incubation. Cells were imaged by confocal microscopy. Quantification of Cy5 conjugated TAT-mtp53ODP uptake in MDA-MB-468 cells and MCF7 cells was conducted by Nikon Element analysis. […] Three independent experiments with biological replicate were performed. Statistical analyses were conducted in Graphpad Prism 9. Results are expressed as mean+SEM. Statistical significance for hypothesis testing was performed by Student's t-test. The following format was used to assign significance based on P-value: *p-value ≤0.05, ** p-value […] p-value ≤0.001.
Live cell imaging staining was also performed on second-generation peptides based on Cy5-conjugated SEQ ID NO: 7 and SEQ ID NO: 8. FIG. 7 depicts the results of live cell imaging staining of MDA-MB-468 and MCF7 cells with 4 h incubation of 500 nM Cy5 conjugated first (TAT-mtp53ODP-35mer, SEQ ID NO: 3) and second-generation (TAT-mtp53ODP-27mer (SEQ ID NO: 7) and Cy5-conjugated TAT-mtp53ODP-37mer (SEQ ID NO: 8)) after 4 h incubation. Cells were imaged by confocal microscopy. A scrambled peptide was included as a control. […]

Sequence | activity relative to TAT-mtp53ODP-35mer (SEQ ID NO: 3)
GRKKRRQRRGEYFTLQIRGRERFEMFR (also: Cy5 conjugate) [TAT-mtp53ODP-27mer, Cy5 conjugated second-generation TAT-mtp53ODP peptide] | reduced activity
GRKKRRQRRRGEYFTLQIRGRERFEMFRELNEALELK (also: Cy5 conjugate) [TAT-mtp53ODP-37mer, Cy5 conjugated second-generation TAT-mtp53ODP peptide] | enhanced activity
